Entries after “also recorded” stand apart in the source; their conditions may differ.
Tests used:
COP1 [1] = target: COP1 (Mus musculus, UniProt Q9R1A8); test: In vivo study: COP1 level in mouse liver; design: from tissue; host or cells: mouse liver (in vivo dosing); species or system C57BL/6 mice; conditions: 30 mg/kg orally
Method: 6-8 weeks old healthy female C57BL/6 mice (average weight: 25 grams) were taken for the study. These were then divided into three groups comprising of three mice per group (Control, compound 107 fed for 8 hours and compound 107 fed for 16 hours). Mice were fed with 30 mg/kg of compound 107 orally. The compound was dissolved in 25% DMSO and 75% PBS. The control group was fed only with the solvent in which the compound was dissolved. Post 8 hours and 16 hours of feeding, mice were sacrificed and a portion of the excised liver tissue was homogenized in lysis buffer containing protease inhibitor cocktail. The homogenate was centrifuged at 20,000 g for 30 minutes following which the supernatant containing the protein lysate was collected. The lysate was then diluted accordingly and protein estimation was carried out by Bradford Assay. This was followed by Western Blotting wherein the levels of ATGL and COP1 were checked. Actin was used as the loading control.

COP1 [2] = target: COP1 (Homo sapiens, UniProt Q8NHY2); test: Western blot of COP1 level in HepG2 cells; type: cell-based; conditions: 24 hours, dose dependent
Sequence of COP1 (Homo sapiens, UniProt Q8NHY2) (Q8NHY2 whole entry): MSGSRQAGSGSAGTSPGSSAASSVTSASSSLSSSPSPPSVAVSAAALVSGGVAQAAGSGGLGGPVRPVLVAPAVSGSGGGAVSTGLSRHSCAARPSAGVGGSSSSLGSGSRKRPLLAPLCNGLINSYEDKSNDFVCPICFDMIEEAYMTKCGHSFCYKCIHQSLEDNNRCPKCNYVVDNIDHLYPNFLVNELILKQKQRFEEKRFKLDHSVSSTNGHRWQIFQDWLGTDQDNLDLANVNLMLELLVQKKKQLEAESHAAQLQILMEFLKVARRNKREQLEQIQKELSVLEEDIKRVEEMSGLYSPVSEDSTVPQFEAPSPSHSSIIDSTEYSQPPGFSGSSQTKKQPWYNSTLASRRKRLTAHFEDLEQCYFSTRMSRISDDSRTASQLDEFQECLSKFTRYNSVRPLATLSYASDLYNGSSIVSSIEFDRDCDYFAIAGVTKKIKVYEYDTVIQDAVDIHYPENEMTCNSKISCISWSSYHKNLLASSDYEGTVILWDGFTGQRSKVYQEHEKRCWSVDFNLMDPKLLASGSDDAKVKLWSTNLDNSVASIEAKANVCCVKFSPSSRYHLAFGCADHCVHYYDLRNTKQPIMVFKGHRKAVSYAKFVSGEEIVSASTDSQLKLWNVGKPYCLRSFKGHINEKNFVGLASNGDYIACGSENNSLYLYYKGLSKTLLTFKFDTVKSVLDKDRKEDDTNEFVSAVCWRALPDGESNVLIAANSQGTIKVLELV
Method: HepG2 cells were treated with the compounds 9, 10, 11, 17, 18, 23, 24, 115, 123, 127, 139,107, 171, 179, 73, 187, 211, 215, 219, 223, 232, 238, 241, 244, 258, 299, 308, and 333a, (10 μM for initial screening and 50 nM, 100 nM, 200 nM, 500 nM, 1 μM and 5 μM for dose dependent assays) for 24 hours. After removing media from the cells, the wells were washed with 1×PBS twice to remove any remnant media. Cells were then lysed in lysis buffer containing 50 mM Tris-HCl (pH 7.4), 100 mM NaCl, 1 mM EDTA, 1 mM EGTA, 1% Triton X-100 and protease inhibitor cocktail (Millipore, Billierica, MA, USA). Following centrifugation at 20,000 g for 20 minutes, the protein solution was extracted from the cells. Protein was estimated using Bradford assay. Bradford's reagent (BioRad) was diluted in 1:4 ratio in double distilled water. 2 μl of protein sample was added to 100 μl of the reagent and absorbance was measured at 595 nm. […] of protein was diluted in lysis buffer. 1× loading buffer diluted from 5× stock containing 250 mM Tris-HCl (pH 6.8), 10% SDS, 50% glycerol, 0.1% bromophenol Blue and 10% β-mercaptoethanol was added. The protein samples were then heated at 95° C. for 10 minutes, cooled and centrifuged at 12,000 g for 2 minutes prior to loading.
For western blotting, the proteins were resolved in 10% SDS PAGE (discontinuous buffer system). […]

Sequence of COP1 (Mus musculus, UniProt Q9R1A8) (Q9R1A8 whole entry): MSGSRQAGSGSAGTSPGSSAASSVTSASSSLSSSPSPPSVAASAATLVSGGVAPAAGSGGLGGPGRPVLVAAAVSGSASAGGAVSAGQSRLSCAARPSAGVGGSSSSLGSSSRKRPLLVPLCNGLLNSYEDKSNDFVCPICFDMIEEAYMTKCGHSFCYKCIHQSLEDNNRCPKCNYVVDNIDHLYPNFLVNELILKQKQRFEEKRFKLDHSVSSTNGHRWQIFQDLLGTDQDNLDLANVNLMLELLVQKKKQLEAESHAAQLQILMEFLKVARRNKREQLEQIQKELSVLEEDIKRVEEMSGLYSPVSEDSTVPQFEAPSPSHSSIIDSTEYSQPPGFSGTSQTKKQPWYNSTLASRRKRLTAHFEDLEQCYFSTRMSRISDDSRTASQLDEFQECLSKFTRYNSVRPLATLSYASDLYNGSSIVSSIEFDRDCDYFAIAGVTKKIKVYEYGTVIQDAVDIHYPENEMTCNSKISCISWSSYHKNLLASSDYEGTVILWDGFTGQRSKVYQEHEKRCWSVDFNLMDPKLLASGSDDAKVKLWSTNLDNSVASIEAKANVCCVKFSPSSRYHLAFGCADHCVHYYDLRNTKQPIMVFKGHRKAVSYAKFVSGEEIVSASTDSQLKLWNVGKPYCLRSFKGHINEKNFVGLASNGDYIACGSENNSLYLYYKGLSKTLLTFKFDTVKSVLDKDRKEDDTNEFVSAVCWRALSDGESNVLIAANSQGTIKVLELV

Row | Structure (SMILES) | COP1 level in liver, 8 hours after feeding (COP1 [1]) | COP1 level in HepG2 cells (COP1 [2])
1 | COCCn1c(C)nc2ccc(NC(=O)Nc3cccc(C(C)=O)c3)cc2c1=O [Compound 107, 1-(3-acetylphenyl)-3-(3-(2-methoxyethyl)-2-methyl-4-oxo-3,4-dihydroquinazolin-6-yl)urea] | no such effect on COP1; also recorded: no significant impact | 
2 | COCCn1c(CN2CCCCC2)nc2ccc(NC(=O)Nc3cccc(C(C)=O)c3)cc2c1=O [Compound 238, 1-(3-acetylphenyl)-3-(3-(2-methoxyethyl)-4-oxo-2-(piperidin-1-ylmethyl)-3,4-dihydroquinazolin-6-yl)urea] |  | most potent in increasing ATGL and COP1 levels; also recorded: increase in ATGL and COP1 levels

Source: patent US12528777B2, “Quinazolinones derivatives for treatment of non-alcoholic fatty liver disease, preparation and use thereof” (Council of Scientific and Industrial Research, priority 2020, dated 2026)
